The results in this text go back to publication PMC11302729, “Repurposing Hsp90 inhibitors as antimicrobials targeting two-component systems identifies compounds leading to loss of bacterial membrane integrity” (Microbiology Spectrum, 2024).

In general, IC50 refers to the concentration that inhibits the measured activity by half.

The target in one series is S. aureus PhoR (Staphylococcus aureus, UniProt Q2FXN7). Put plainly: HK autophosphorylation inhibition, PhoR. It counts as biochemical. Particulars: ± SD, n = 2; 10 mM ATP. The protocol: Cytoplasmic domains from S. aureus PhoR and E. coli EnvZ as well the CA domain of Thermotoga maritima CheA were cloned in pNIC28-Bsa4 ([54]) plasmid containing His6-tag expressed in E. coli RIL and purified as previously described ([21], [55], [56]) using His-affinity and size exclusion chromatography. Briefly, E. coli RIL strains carrying the appropriate plasmid were grown in 1 L Luria broth (LB) (Merck Millipore) supplemented with kanamycin (100 µg/mL) with shaking (200 r.p.m.) at 37°C. When OD600 reached 0.5, 1 mM isopropyl-ß-D-1-thiogalactopyranoside (IPTG) was added to induce protein expression and cells were grown for 3 more hours. Cells were harvested by centrifugation (4,000 g, 4°C), resuspended in 40 mL buffer A (50 mM Tris-HCl pH 8.0, 0.5 M NaCl, 10% glycerol, and 1 mM phenylmethanesulfonyl fluoride), sonicated (4°C, 5 min with pulses of 15 sec at intervals of 1 min), and centrifuged (11,000 g, 4°C, 60 min). Supernatant was passed through a 5-mL HisTrap HP column (GE Healthcare) equilibrated in buffer A using the AKTA system (GE Healthcare). His-column was washed with buffer A (80 mL), and a linear gradient of imidazole (range 0 to 0.25 M) in buffer A was applied. The purest fractions evaluated by SDS-PAGE were collected, concentrated by ultrafiltration in a Amicon Ultra-15 (10- or 30-kDa exclusion) (Merck Millipore), and further purified by gel filtration using Superdex 200 column (GE Healthcare), equilibrated in buffer B (50 mM TrisHCl, pH 8.0, 0.2 M NaCl, and 5% glycerol). Purified proteins were then concentrated using ultrafiltration and stored at −80°C.
Autophosphorylation inhibition assays were performed in kinase assay buffer [100 mM Tris-HCl (pH 8.0), 5 mM MgCl2, 10 mM DTT], containing 5 µg of purified HK and 10 mM ATP for 30 min at 25°C. The reaction was stopped by adding gel loading buffer containing 16% SDS before loading the reaction on a 12% SDS-PAGE. […] The phosphorylated histidine was detected by western blotting by then incubating the membrane for 60 min with 1:1,000 anti-N1-phosphohistidine antibody (Merck Millipore) in TBS-T followed by a washing step for 30 min with TBS-T and a final 60-min incubation with 1:10,000 horseradish […] anti-rabbit IgG (Promega) in TBS-T. Chemiluminescent reaction was measured using Pierce ECL immunoblotting substrate (Thermo Scientific) in a LAS 3000 image analyzer (Fujifilm Life Science, Tokyo, Japan) followed by densitometric analysis using Multi Gauge image-analysis software (Fujifilm Life Science, Tokyo, Japan). The inhibitor concentrations required to halve the chemiluminescence intensity (IC50) were determined using Prism 4.1 (GraphPad Software, San Diego, CA, USA).

The next series can be described thus: Haemolysis assay. Particulars: sheep, sheep red blood cells, 2% suspension; read-out: RBC hemolysis. It counts as cell-based, sheep. The method, boiled down: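 Sheep erythrocytes at 2% in PBS exposed to compound, with untreated, 1% DMSO and 2% Triton-X controls. After centrifugation, supernatant haemoglobin read at 540 nm; % haemolysis = (test − DMSO)/(Triton − DMSO), quadruplicate.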

The next series deals with HEK293 cells. Put plainly: Cell imaging of HEK293 cells. Format: cell-based. Particulars: LC20, 24 hours exposure, 40× amplification. The protocol:
HEK293 cells were plated in 24-well plates on exposure medium for 24 hours (500,000 cells/well). Cells were exposed to a subset of compounds at a lethal concentration of 20% (LC20). After 24 hours exposure, cells were fixed with 2% glutaraldehyde for 15 min, washed with water, permeabilized with 0.5% Triton-X, washed twice with water, and stained with Toluidine blue 0.3%. For 100× amplification, cells were harvested by pipetting up and down in 250 µL of exposure medium. Cells from three wells treated with the same compound were pooled and centrifuged for 5 min at 1,500 r.p.m. The cell pellet was fixed in 0.1 M cacodylate buffer containing 2% glutaraldehyde (vol/vol) (pH 7.4). After 1 hour on ice, the pellet was washed with 0.1 M cacodylate buffer and fixed in 0.1 M cacodylate buffer containing 1% osmium tetroxide (wt/vol). After a further hour on ice, the cell pellet was embedded in hard Epon and 1-µm slides were cut and stained with 1% toluidine blue and 1% borax (wt/vol). Cell abnormalities were assessed by microscopy using a Leica DM6B light microscope (Leica Microsystems B.V., Amsterdam, the Netherlands) at 100× magnification.

Chain of S. aureus PhoR (Q2FXN7 entry or part of it): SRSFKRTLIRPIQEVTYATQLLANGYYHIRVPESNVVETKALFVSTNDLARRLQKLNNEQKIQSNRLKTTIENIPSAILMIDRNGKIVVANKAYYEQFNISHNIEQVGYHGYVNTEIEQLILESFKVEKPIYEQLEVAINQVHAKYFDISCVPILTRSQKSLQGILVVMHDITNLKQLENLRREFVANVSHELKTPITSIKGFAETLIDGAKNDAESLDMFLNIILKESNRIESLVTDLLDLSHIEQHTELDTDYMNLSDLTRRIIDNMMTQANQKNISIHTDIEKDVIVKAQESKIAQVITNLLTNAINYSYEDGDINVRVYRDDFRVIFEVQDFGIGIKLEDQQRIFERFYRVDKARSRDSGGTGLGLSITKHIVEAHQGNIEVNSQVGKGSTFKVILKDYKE

`COc1ccc(-c2[nH]nc(C(F)(F)F)c2-c2ccc(Cl)cc2)c(O)c1` [DPP-6]: at S. aureus PhoR, half-maximal inhibition (IC50) required 55 ± 3.8 µM. Further, in “Haemolysis assay”, the hemolysis at 30 min was 100%. Further, the “Morphological changes of HEK293 cells” value in the series with HEK293 cells is given as “membrane blebbing”.
`COc1ccc(-c2c(C(F)(F)F)n[nH]c2-c2ccc(O)cc2O)cc1` [DPP-12] registered an IC50 at S. aureus PhoR of 328 ± 4.1 µM.
As for `Oc1ccc(-c2n[nH]c(C(F)(F)F)c2-c2ccc(Cl)cc2)c(O)c1` [DPP-5], at S. aureus PhoR, the half-maximal inhibitory concentration (IC50) amounted to 95 ± 5.6 µM. In addition, the hemolysis at 30 min in the series “Haemolysis assay” is 100%. Also, the “Morphological changes of HEK293 cells” value in the series on HEK293 cells is “membrane blebbing”.
The compound `COc1ccc(-c2c(C(F)(F)F)n[nH]c2-c2ccc(OC)cc2O)cc1` [DPP-13] came in with an IC50 against S. aureus PhoR of 89 ± 6.9 µM.
